This is an account of results in patent US8063054B2, “Method of treatment of retinal ischemia with diazoxide” (Centre National de la Recherche Scientifique-CNRS, priority 2003, dated 2011).

In data set [1] the test system is Brown Norway rats. The experiment in a line: Histological analysis of the cytoarchitecture of the retina after retinal ischemia. To be noted: 7 days after the end of the ischemia; treated 30 min or 24 hours after ischemia, compared to non-treated ischemia group. It is filed as in vivo, rat. On the procedure:
Brown Norway rats from the scientific stock farm IFFA CREDO with a weight between 200 and 250 g were received and placed into individual cages in an air-conditioned room (temperature between 18 and 20° C.) with a light/dark cycle (12 h/12 h). During the study the animals had free access to food and water.
Diazoxide was dissolved in a pure solution of dimethyl sulfoxide (DMSO). The solution obtained in this manner was diluted in sterile physiological serum to obtain a final ophthalmic solution at 0.01% active principle and 0.4% DMSO.
The local administration was performed by instillation of 10 μl of the ophthalmic solution in the conjunctival cul-de-sac of the right eye 30 minutes after the end of the ischemia for the 1st group and 24 hours after the start of the reperfusion for the second group, then each day for 4 hours.
After general anesthesia of the rats by intraperitoneal injection of sodium pentobarbital (60 mg/kg) the pupil was dilated by instillation of a drop of Mydriaticum®. The anterior chamber of the right eye, previously anesthetized by instillation of a drop of oxybuprocaine, was cannulated with a 30G needle connected to a reservoir containing a Hank's balanced salt solution. […] Ischemia was characterized by the disappearance of the blood flow in the retinal vessels, determined by direct opthalmoscopy of the ocular fundus. […]

For data set [2], the system named is Brown Norway rats. Briefly: Electroretinography (A and B wave amplitude) after retinal ischemia induced by elevation of the intraocular pressure. It is filed as in vivo, rat. On the procedure:
Brown Norway rats from the scientific stock farm IFFA CREDO with a weight between 200 and 250 g were received and placed into individual cages in an air-conditioned room (temperature between 18 and 20° C.) with a light/dark cycle (12 h/12 h). During the study the animals had free access to food and water. Diazoxide was dissolved in a pure solution of dimethyl sulfoxide (DMSO). The solution obtained in this manner was diluted in sterile physiological serum to obtain a final ophthalmic solution at 0.01% active principle and 0.4% DMSO. The local administration was performed by instillation of 10 μl of the ophthalmic solution in the conjunctival cul-de-sac of the right eye 30 minutes after the end of the ischemia for the 1st group and 24 hours after the start of the reperfusion for the second group, […] After general anesthesia of the rats by intraperitoneal injection of sodium pentobarbital (60 mg/kg) the pupil was dilated by instillation of a drop of Mydriaticum®. The anterior chamber of the right eye, previously anesthetized by instillation of a drop of oxybuprocaine, was cannulated with a 30G needle connected to a reservoir containing a Hank's balanced salt solution. The retinal ischemia, lasting 40 min, was induced by elevation of the reservoir containing the saline solution to a height of 185 cm, permitting an intraocular pressure to 130 mm Hg to be produced. Ischemia was characterized by the disappearance of the blood flow in the retinal vessels, determined by direct opthalmoscopy of the ocular fundus. The rats were sacrificed after a period of reperfusion of 7 days. All the rats that developed a cataract or a hemorrhage were separated from the study. The electroretinography is performed under general anesthesia of the rats after dilation of the pupil by instillation of a drop of Mydriaticum®. The animal is previously adapted for 12 hours to darkness, then installed on its flank in a Faraday cage. The measuring electrode, constituted by a silver chloride ring (Ag/AgCl) is placed on the cornea of the right eye. The reference electrode constituted by a silver chloride needle is inserted in the ear of the animal. All these operations are performed under red light. The luminous stimuli are produced by a stroboscope placed at 25 cm from the eye in the visual axis. The flash of white light lasting 10 μs and with an intensity of 2.5·10^3 cd·s·m^−2 permits a maximal response of the retina. The recovery of the electrical signal, its amplification, transmission and display on a microcomputer are managed by a compact system. An integrated software permits the acquisition of the data as well as the determination of the amplitudes and of the latency times of the different waves of the electroretinogram (ERG). The ERG in the rat is composed of two waves; a corneo-negative wave or A wave reflecting the activity of the photoreceptors followed by a wave of positive polarity or B wave reflecting the activity of the Müller cells. The ERG's are recorded for all the groups at time t=0 before induction of ischemia, then at times 1, 2, 3 and 7 days after the start of the reperfusion. The pre-ischemic amplitudes of the A and B waves of the ERG are very variable from one group to the other, but also within one and the same group. Recovery is expressed by percentage of the initial value and the difference of effectiveness between each treatment is analyzed with the aid of the U test of Mann Whitney. The significance threshold is 0.02.

The mark [3] stands for this setting: diazoxide 0.01% instilled 30 minutes after the start of the reperfusion and every day for 4 days, 3 days after the start of the reperfusion, ± standard deviation, n=7.
[4] abbreviates: diazoxide 0.01% instilled 30 minutes after the start of the reperfusion and every day for 4 days, 7 days after the end of the ischemia.
The mark [5] stands for this setting: diazoxide applied 24 hours after the start of the reperfusion, time 3 days.
Where [6] appears, read: diazoxide applied 24 hours after the start of the reperfusion, time 7 days.

Regarding `CC1=Nc2ccc(Cl)cc2S(=O)(=O)N1` [diazoxide, 7-chloro-3-methyl-2H-1,2,4-benzothiadiazine-1,1-dioxide], the “preservation of the layers of the ganglionic cells and the photoreceptor cells (FIGS. 3C and 3D)” value in the data set on Brown Norway rats [1] is given as “better presservation”. Also, in the data set with Brown Norway rats [1], the “thickness of the internal plexiform and nuclear layers of the retina (FIGS. 3C and 3D)” value is reported as “less severe reduction”. For the same compound, in the data set on Brown Norway rats [2] (7 days after the end of the ischemia, groups treated 30 min or 24 hours after ischemia, compared to non-treated ischemia group), the “reduction of the electrical activity of the retina (ERG profiles, FIG. 1C-1D)” value is on record as “much less drastic”. Moreover, the “amplitude of wave A of the electroretinogram, recovery in % of the initial values” was 97.01±13% in the data set with Brown Norway rats [2] (setting [3]), 88.10±14% in the data set with Brown Norway rats [2] (setting [4]), 84.26±10% in the data set on Brown Norway rats [2] (setting [5]) and 87.59±16% in the data set with Brown Norway rats [2] (setting [6]). The “amplitude of wave B of the electroretinogram, recovery in % of the initial values” in the data set on Brown Norway rats [2] (setting [3]) was determined as 96.36±11%; in the data set on Brown Norway rats [2] (setting [4]), 75±14%; in the data set on Brown Norway rats [2] (setting [5]), 88.17±14%; with Brown Norway rats [2] (setting [6]) it was 70.59±16%. For the same compound, the “effect on the recovery of the retinal function (statistical analysis, Mann Whitney U test)” value in the data set on Brown Norway rats [2] (instilled 30 min or 24 hours after the end of the ischemia, compared to the non-treated group caused to have ischemia) is on record as “highly significant effect”.
